The values below come from patent US10604555B2, “GIP derivatives and uses thereof” (priority 2018, dated 2020).

*1 amine or outer side, *2 acyl side, *3 side chain or, on linkers, in order; H or OH if unused. Where no end group is shown, it is not given here. Side-chain parts run from the residue outwards. [ ]: non-standard residue; d: D form. The star is where a group is joined. C18 diacid = O=C(O)CCCCCCCCCCCCCCCCC(=O)*; γGlu = O=C(O)[C@H](CCC(=O)[*:2])N[*:1]; Nle = CCCC[C@H](N)C(=O)O; AEEA = NCCOCCOCC(=O)O; Aib = CC(C)(N)C(=O)O Bounds are passed on as bounds.

The target in data set [1] is T1, human GIP receptor (Homo sapiens, UniProt P48546).
T1 construct: expressed in transfected cells; host or cells: BHK (parent line BHKTS13), BHK CRE luc2P hGIPR clone #5
T1 sequence (P48546 22-466): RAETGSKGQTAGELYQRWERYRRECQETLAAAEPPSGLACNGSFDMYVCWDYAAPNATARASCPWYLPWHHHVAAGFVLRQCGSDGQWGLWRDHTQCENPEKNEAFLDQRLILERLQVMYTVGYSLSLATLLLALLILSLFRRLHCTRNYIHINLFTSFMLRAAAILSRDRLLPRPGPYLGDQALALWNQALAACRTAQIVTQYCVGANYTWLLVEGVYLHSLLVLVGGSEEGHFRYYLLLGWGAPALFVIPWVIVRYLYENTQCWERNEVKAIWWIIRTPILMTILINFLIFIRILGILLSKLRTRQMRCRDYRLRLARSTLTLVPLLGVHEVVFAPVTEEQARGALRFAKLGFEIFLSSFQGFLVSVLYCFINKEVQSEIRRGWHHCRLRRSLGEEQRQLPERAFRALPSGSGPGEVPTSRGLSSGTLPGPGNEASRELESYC
The data set is described as follows: In vitro potency (CRE luciferase; whole cells), BHK CRE luc2P hGIPR. Format: cell-based. The conditions noted are these: 0.2% HSA. A digest of the protocol:
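BHK clones carrying a CRE luciferase element, each transfected with one human receptor, were seeded at 5000 cells/well overnight. Compounds were diluted in buffer with 1% ovalbumin and 0.1% Pluronic F-68, with or without human serum albumin. Luminescence was read after steadylite plus; non-linear log(agonist)-response fit, averaged over at least two replicates.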

For data set [2], the target named is T2, human GLP-1 receptor (Homo sapiens, UniProt P43220).
T2 construct: expressed in transfected cells; host or cells: BHK (parent line BHKTS13), BHK CRE luc2P hGLP-1R clone #6
T2 sequence (P43220 24-463): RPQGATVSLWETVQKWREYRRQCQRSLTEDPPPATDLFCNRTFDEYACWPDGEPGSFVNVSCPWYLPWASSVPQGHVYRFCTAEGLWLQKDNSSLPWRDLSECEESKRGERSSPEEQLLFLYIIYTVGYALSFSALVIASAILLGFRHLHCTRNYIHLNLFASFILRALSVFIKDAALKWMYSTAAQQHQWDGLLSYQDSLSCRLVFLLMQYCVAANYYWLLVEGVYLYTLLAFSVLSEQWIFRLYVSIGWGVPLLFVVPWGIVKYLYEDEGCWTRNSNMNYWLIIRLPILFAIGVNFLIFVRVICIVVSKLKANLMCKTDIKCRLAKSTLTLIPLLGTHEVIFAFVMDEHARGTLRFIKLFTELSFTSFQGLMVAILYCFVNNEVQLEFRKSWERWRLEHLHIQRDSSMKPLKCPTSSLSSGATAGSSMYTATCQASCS
The data set is described as follows: In vitro potency (CRE luciferase; whole cells), BHK CRE luc2P hGLP-1R. It is filed as cell-based. The conditions noted are these: 0.2% HSA. The protocol: (§1) In Vitro Potency (CRE Luciferase; Whole Cells)
(§2) The in vitro potency is the measure of human GIP, GLP-1 or glucagon receptor activation, respectively, in a whole cell assay.
(§3) In vitro potency was determined by measuring the response of the human GIP, GLP-1 or glucagon receptor in a reporter gene assay in individual cell lines. […] When the respective receptor is activated it results in the production of cAMP, which in turn results in the luciferase protein being expressed. When assay incubation is completed the luciferase substrate (luciferin) is added and the enzyme converts luciferin to oxyluciferin to produce bioluminescence. The luminescence is measured as the readout for the assay.
(§4) The cells were derived from a clone containing the CRE luciferase element and were established by further transfection with the respective receptor to obtain the current clone.
(§5) The cells were cultured at 5% CO2 in Cell Culture Medium. They were aliquoted and stored in liquid nitrogen. The cells were kept in passage and were seeded out the day before each assay.
(§6) The Assay Buffer consisted of 1% ovalbumin and 0.1% Pluronic F-68 in Assay Medium with the addition of human serum albumin at twice the indicated concentrations.
(§7) 1) Cells were plated at 5000 cells/well and incubated overnight.
(§8) 2) Cells were washed three times in PBS.
(§9) 3) Assay Medium (50 μl aliquot) with or without serum albumin was added to each well in the assay plate.
(§10) 4) Stocks of the test compounds and reference compounds were diluted to a concentration of 0.2 μM in Assay Buffer. […] 8) The cells were washed three times with PBS plus some liquid in each well. 9) A 100 μl aliquot of steadylite plus reagent was added to each well of the assay plate (reagent was light sensitive). 10) Each assay plate was covered with aluminum foil to protect it from light and shaken for 30 min at room temperature. 11) Each assay plate was read in a microtiter plate reader. Calculations and Results
The data from the microtiter plate reader was transferred to GraphPad Prism software. The software performs a non-linear regression (log(agonist) vs response).
A minimum of two replicates was measured for each sample. The reported values are averages of the replicates.

In data set [3] the target is T3, human glucagon receptor (Homo sapiens, UniProt P47871).
T3 construct: expressed in transfected cells; host or cells: BHK (parent line BHKTS13), BHK CRE luc2P hGCGR clone #18
T3 sequence (P47871 26-477): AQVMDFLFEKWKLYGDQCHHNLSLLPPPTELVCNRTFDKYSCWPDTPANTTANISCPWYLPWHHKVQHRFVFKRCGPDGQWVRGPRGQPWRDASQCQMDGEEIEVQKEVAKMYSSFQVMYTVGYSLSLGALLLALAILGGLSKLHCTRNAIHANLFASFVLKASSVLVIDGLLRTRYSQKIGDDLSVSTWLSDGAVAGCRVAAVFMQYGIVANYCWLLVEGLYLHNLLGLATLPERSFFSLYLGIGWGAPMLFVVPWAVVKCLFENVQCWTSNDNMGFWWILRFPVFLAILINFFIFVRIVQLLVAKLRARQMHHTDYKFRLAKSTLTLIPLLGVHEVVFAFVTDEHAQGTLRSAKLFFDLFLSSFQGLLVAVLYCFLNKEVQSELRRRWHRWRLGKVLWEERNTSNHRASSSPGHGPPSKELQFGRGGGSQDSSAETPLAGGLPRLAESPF
The data set is described as follows: In vitro potency (CRE luciferase; whole cells), BHK CRE luc2P hGCGR. It is filed as cell-based. The conditions noted are these: 0.2% HSA. The protocol:
as §1, §2, §3, §4, §5, §6, §7, §8, §9, §10
The data from the microtiter plate reader was transferred to GraphPad Prism software. […]
A minimum of two replicates was measured for each sample. […]

Data set [4] can be described thus: Pharmacokinetic study in minipigs, terminal half-life after i.v. administration. It is filed as in vivo. The conditions noted are these: female, Göttingen, minipig, plasma, iv, 5 nmol/kg; read-out: t1/2 (hours) harmonic mean (converted).
Experimental: This is done in a pharmacokinetic (PK) study, where the terminal half-life of the derivative in question is determined. By terminal half-life is generally meant the period of time it takes to halve a certain plasma concentration, measured after the initial distribution phase.
Female Göttingen minipigs were obtained from Ellegaard Göttingen Minipigs (Dalmose, Denmark) approximately 7-14 months of age and weighing from approximately 16-35 kg were used in the studies. The minipigs were housed individually and fed restrictedly once daily with SDS minipig diet (Special Diets Services, Essex, UK).
After at 3 weeks of acclimatisation two permanent central venous catheters were implanted in vena cava caudalis in each animal. The animals were allowed 1 week recovery after the surgery, and were then used for repeated pharmacokinetic studies with a suitable wash-out period between successive derivative dosing.
Blood samples (for example 0.8 ml) were collected in EDTA buffer (8 mM) and then centrifuged at 4° C. and 1942G for 10 minutes.
Individual plasma concentration-time profiles were analysed by a non-compartmental model in Phoenix WnNonLin ver. […] (Pharsight Inc., Mountain View, Calif., USA), and the resulting terminal half-lives (harmonic mean) determined.

Consider `CCCC[C@H](NC(=O)[C@H](C)NC(=O)[C@@H](NC(=O)[C@H](CO)NC(=O)[C@H](Cc1ccc(O)cc1)NC(=O)[C@H](CC(=O)O)NC(=O)[C@H](CO)NC(=O)[C@@H](NC(=O)[C@H](Cc1ccccc1)NC(=O)[C@@H](NC(=O)CNC(=O)[C@H](CCC(=O)O)NC(=O)C(C)(C)NC(=O)[C@@H](N)Cc1ccc(O)cc1)[C@@H](C)O)[C@@H](C)CC)[C@@H](C)CC)C(=O)N[C@@H](CC(=O)O)C(=O)N[C@@H](CCCCN)C(=O)N[C@H](C(=O)N[C@@H](CCCNC(=N)N)C(=O)N[C@@H](CCC(N)=O)C(=O)N[C@@H](CCC(N)=O)C(=O)N[C@@H](CC(=O)O)C(=O)N[C@@H](Cc1ccccc1)C(=O)N[C@H](C(=O)N[C@@H](CCCCNC(=O)COCCOCCNC(=O)COCCOCCNC(=O)CC[C@H](NC(=O)CCCCCCCCCCCCCCCCC(=O)O)C(=O)O)C(=O)N[C@@H](Cc1c[nH]c2ccccc12)C(=O)N[C@@H](CC(C)C)C(=O)N[C@@H](CC(C)C)C(=O)N[C@@H](C)C(=O)N[C@@H](CCC(N)=O)C(=O)N[C@@H](CCCCN)C(=O)NCC(=O)N[C@@H](CCCCN)C(=O)N[C@@H](CCC(=O)O)C(=O)N[C@@H](CCC(=O)O)C(=O)N[C@@H](CC(=O)O)C(=O)N[C@@H](Cc1c[nH]c2ccccc12)C(=O)N[C@@H](CCCCN)C(=O)N[C@@H](Cc1c[nH]cn1)C(=O)N[C@@H](CC(N)=O)C(=O)N[C@H](C(=O)N[C@H](C(=O)N[C@@H](CCC(N)=O)C(=O)O)[C@@H](C)O)[C@@H](C)CC)C(C)C)[C@@H](C)CC` [Compound 37, N{Epsilon-24}-[2-[2-[2-[[2-[2-[2-[[(4S)-4-carboxy-4-(17-carboxyheptadecanoylamino)butanoyl]amino]ethoxy]ethoxy]acetyl]amino]ethoxy]ethoxy]acetyl]-[Aib2,Nle14,Arg18,Lys24,Glu33,Glu34]-hGIP], for which the 50% effective concentration (EC50) in data set [1] was 0.00412 nM; in data set [2], greater than 100 nM; in data set [3], greater than 100 nM.
With `CCCC[C@H](NC(=O)[C@H](C)NC(=O)[C@@H](NC(=O)[C@H](CO)NC(=O)[C@H](Cc1ccc(O)cc1)NC(=O)[C@H](CC(=O)O)NC(=O)[C@H](CO)NC(=O)[C@@H](NC(=O)[C@H](Cc1ccccc1)NC(=O)[C@@H](NC(=O)CNC(=O)[C@H](CCC(=O)O)NC(=O)C(C)(C)NC(=O)[C@@H](N)Cc1ccc(O)cc1)[C@@H](C)O)[C@@H](C)CC)[C@@H](C)CC)C(=O)N[C@@H](CC(=O)O)C(=O)N[C@@H](CCCCN)C(=O)N[C@H](C(=O)N[C@@H](CCCNC(=N)N)C(=O)N[C@@H](CCC(N)=O)C(=O)N[C@@H](CCC(N)=O)C(=O)N[C@@H](CC(=O)O)C(=O)N[C@@H](Cc1ccccc1)C(=O)N[C@H](C(=O)N[C@@H](CCCCNC(=O)CC[C@H](NC(=O)CC[C@H](NC(=O)CC[C@H](NC(=O)CCCCCCCCCCCCCCCCC(=O)O)C(=O)O)C(=O)O)C(=O)O)C(=O)N[C@@H](Cc1c[nH]c2ccccc12)C(=O)N[C@@H](CC(C)C)C(=O)N[C@@H](CC(C)C)C(=O)N[C@@H](C)C(=O)N[C@@H](CCC(N)=O)C(=O)N[C@@H](CCCCN)C(=O)NCC(=O)N[C@@H](CCCCN)C(=O)N[C@@H](CCC(=O)O)C(=O)N[C@@H](CCC(=O)O)C(=O)N[C@@H](CC(=O)O)C(=O)N[C@@H](Cc1c[nH]c2ccccc12)C(=O)N[C@@H](CCCCN)C(=O)N[C@@H](Cc1c[nH]cn1)C(=O)N[C@@H](CC(N)=O)C(=O)N[C@H](C(=O)N[C@H](C(=O)N[C@@H](CCC(N)=O)C(=O)O)[C@@H](C)O)[C@@H](C)CC)C(C)C)[C@@H](C)CC` [Compound 40, N{Epsilon-24}-[(4S)-4-carboxy-4-[[(4S)-4-carboxy-4-[[(4S)-4-carboxy-4-(17-carboxyheptadecanoylamino)butanoyl]amino]butanoyl]amino]butanoyl]-[Aib2,Nle14,Arg18,Lys24,Glu33,Glu34]-hGIP], the 50% effective concentration (EC50) in data set [1] is 0.00447 nM; in data set [2], greater than 100 nM; in data set [3], greater than 100 nM.
Consider “Y[Aib]EGTFISDYSIA[Nle]DKIHQQDFVK([AEEA-AEEA-γGlu-C18 diacid])WLLAQKGKEEDWKHNITQ [Compound 35, N{Epsilon-24}-[2-[2-[2-[[2-[2-[2-[[(4S)-4-carboxy-4-(17-carboxyheptadecanoylamino)butanoyl]amino]ethoxy]ethoxy]acetyl]amino]ethoxy]ethoxy]acetyl]-[Aib2,Nle14,Lys24,Glu33,Glu34]-hGIP]”, for which the EC50 in data set [1] is 0.00545 nM; in data set [2] it was greater than 100 nM; in data set [3], greater than 100 nM.
With `CCCC[C@H](NC(=O)[C@H](C)NC(=O)[C@@H](NC(=O)[C@H](CO)NC(=O)[C@H](Cc1ccc(O)cc1)NC(=O)[C@H](CC(=O)O)NC(=O)[C@H](CO)NC(=O)[C@@H](NC(=O)[C@H](Cc1ccccc1)NC(=O)[C@@H](NC(=O)CNC(=O)[C@H](CCC(=O)O)NC(=O)[C@H](C)NC(=O)[C@@H](Cc1ccc(O)cc1)NC(C)=O)[C@@H](C)O)[C@@H](C)CC)[C@@H](C)CC)C(=O)N[C@@H](CC(=O)O)C(=O)N[C@@H](CCCCN)C(=O)N[C@H](C(=O)N[C@@H](CCCNC(=N)N)C(=O)N[C@@H](CCC(N)=O)C(=O)N[C@@H](CCC(N)=O)C(=O)N[C@@H](CC(=O)O)C(=O)N[C@@H](Cc1ccccc1)C(=O)N[C@H](C(=O)N[C@@H](CCCCNC(=O)COCCOCCNC(=O)COCCOCCNC(=O)CC[C@H](NC(=O)CCCCCCCCCCCCCCCCC(=O)O)C(=O)O)C(=O)N[C@@H](Cc1c[nH]c2ccccc12)C(=O)N[C@@H](CC(C)C)C(=O)N[C@@H](CC(C)C)C(=O)N[C@@H](C)C(=O)N[C@@H](CCC(N)=O)C(=O)N[C@@H](CCCCN)C(=O)NCC(=O)O)C(C)C)[C@@H](C)CC` [Compound 15, N{1}-acetyl,N{Epsilon-24}-[2-[2-[2-[[2-[2-[2-[[(4S)-4-carboxy-4-(17-carboxyheptadecanoylamino)butanoyl]amino]ethoxy]ethoxy]acetyl]amino]ethoxy]ethoxy]acetyl]-[D-Tyr1,Nle14,Arg18,Lys24]-hGIP(1-31)], it took 0.0304 nM to reach a half-maximal effect in data set [1] (EC50). In data set [4], the half-life is 81 h.
In the same order, the values of `CCCC[C@H](NC(=O)[C@H](C)NC(=O)[C@@H](NC(=O)[C@H](CO)NC(=O)[C@H](Cc1ccc(O)cc1)NC(=O)[C@H](CC(=O)O)NC(=O)[C@H](CO)NC(=O)[C@@H](NC(=O)[C@H](Cc1ccccc1)NC(=O)[C@@H](NC(=O)CNC(=O)[C@H](CCC(=O)O)NC(=O)[C@H](C)NC(=O)[C@@H](Cc1ccc(O)cc1)NC(C)=O)[C@@H](C)O)[C@@H](C)CC)[C@@H](C)CC)C(=O)N[C@@H](CC(=O)O)C(=O)N[C@@H](CCCCN)C(=O)N[C@H](C(=O)N[C@@H](CCCNC(=N)N)C(=O)N[C@@H](CCC(N)=O)C(=O)N[C@@H](CCC(N)=O)C(=O)N[C@@H](CC(=O)O)C(=O)N[C@@H](Cc1ccccc1)C(=O)N[C@H](C(=O)N[C@@H](CCCCNC(=O)COCCOCCNC(=O)COCCOCCNC(=O)CC[C@H](NC(=O)CC[C@H](NC(=O)CC[C@H](NC(=O)CCCCCCCCCCCCCCCCC(=O)O)C(=O)O)C(=O)O)C(=O)O)C(=O)N[C@@H](Cc1c[nH]c2ccccc12)C(=O)N[C@@H](CC(C)C)C(=O)N[C@@H](CC(C)C)C(=O)N[C@@H](C)C(=O)N[C@@H](CCC(N)=O)C(=O)N[C@@H](CCCCN)C(=O)NCC(=O)O)C(C)C)[C@@H](C)CC` [Compound 17, N{1}-acetyl,N{Epsilon-24}-[2-[2-[2-[[2-[2-[2-[[(4S)-4-carboxy-4-[[(4S)-4-carboxy-4-[[(4S)-4-carboxy-4-(17-carboxyheptadecanoylamino)butanoyl]amino]butanoyl]amino]-butanoyl]amino]ethoxy]ethoxy]acetyl]amino]ethoxy]ethoxy]acetyl]-[D-Tyr1,Nle14,Arg18,Lys24]-hGIP(1-31)] are 0.0431 nM and 88 h.
